One compound from article PMC3397391 (Chemistry & biology, 2012) can be followed below.

The assay concerns cultured P. falciparum. Description: Cell culture inhibition assay, cultured parasites. The format is cell-based, Plasmodium falciparum. The conditions noted are these: in the presence of hypoxanthine; data not shown.

In the case of `O=c1[nH]cnc2c([C@@H]3N[C@H](COP(=O)(O)O)[C@@H](O)[C@H]3O)c[nH]c12` [ImmHP, Immucillin-H 5′-phosphate], the “activity against cultured P. falciparum” value is given as “lacks activity”.
